Data set [1] deals with total glutathione in AML-12 hepatocyte cell line. In words: Total glutathione (GSH-Glo) in AML-12. The format is cell-based, mouse. The note with it: AML-12, 24 h, 15.6 nM. An excerpt: Glutathione and NADPH are critical factors required for the maintenance of cellular redox capacity. […] Data shown are representative of two independent experiments.
Data set [2] concerns H6PD, PGD, TKT, ME1 mRNA in HCT-116 cells. Briefly: mRNA of NADPH synthesis genes in HCT-116. The format is cell-based. The note with it: HCT-116, 10 or 50 nM, 24 h. The protocol: HCT-116 cells were plated in 6-well dishes at a density of 3×10^5 cells/well. […] Each well received the same amount of vehicle. Following treatment, media was removed and cells were harvested using RLT buffer (Qiagen). Lysates were homogenized using QIAShredder columns (Qiagen, Catalog #79654) and RNA was isolated using RNeasy Mini kits (Qiagen, Catalog #74104). For reverse transcription, RNA (1 μg) was combined with Oligo(dT)12-18 primer and H2O in a final volume of 23.25 μL. The mixture was heated to 70° C. for 10 min and then placed on ice. A master mix containing 8 μL 5×1st strand buffer, 2 μL 1 mg/ml BSA, 2 μL 20 mM DTT, 4 μL 5 mM dNTP mix, 0.25 μL RNaseOUTTM and 0.5 μL […]® II reverse transcriptase was added to the RNA mixture and incubated at 42° C. for 1 h. The reaction was inactivated by heating to 70° C. for 10 min. The reaction mixture was diluted 1:3 with H2O prior to use in qPCR. 2.5 μL of the diluted reverse transcription reaction was combined with one set of PCR primers (0.36 μM final concentration), 2× iQTM SYBR® Green Supermix (Bio-Rad, Catalog #170-8885) and H2O to a final volume of 20 pt. Sequences for PCR primers are as follows: Ribosomal protein S9 (RPS9) forward primer [NT] ID NO: 7), reverse primer [NT] ID NO: 8); […] […] The relative abundance of each target gene was determined using the comparative CT method (ΔΔCT). […]

Data set [3] relates to cigarette smoke-induced COPD. Briefly: Cigarette smoke-induced COPD in mice. The format is in vivo, mouse. As for the experimental part: (a) KC; (b) IL-6; (c) TNF-α; (d) IFN-γ; (e) RANTES. […] An AIM analog (63355) was tested in the same study for comparison. Asterisks indicate a statistically significant difference form the CS control group.
At the end of the study, lung tissue and BALF were collected for analysis of inflammatory infiltrates and cytokines. […] An AIM analog (63355) was tested in the same study for comparison. 63355 is a compound of the formula: […]
Txnrd, Gst, and […] enzyme activities were measured using commercially available kits from Cayman Chemical (Ann Arbor, Mich.).

For data set [4], the system named is NQO1 activity. Briefly: NQO1 activity induction in mouse liver, lung, and kidney after PO QD×3. The format is in vivo. The note with it: mice PO QD×3 25 mg/kg, 6 h after last dose. As for the experimental part: FIG. 53—NQO1 activity induction in mouse liver, lung, and kidney by 63415. Mice were dosed PO QD×3 with 25 mg/kg. Tissues were collected 6 h after the last dose, and analysis of NQO1 activity was performed.

Data set [5] in a line: Plasma protein binding (ultracentrifugation), mouse.

SMILES strings stand for the structures.

Regarding `CC1(C)CC[C@]2(NC(=O)C(C)(F)F)CC[C@]3(C)[C@H](C(=O)C=C4[C@@]5(C)C=C(C#N)C(=O)C(C)(C)[C@@H]5CC[C@]43C)[C@@H]2C1` [RTA 408, N-((4aS,6aR,6bS,8aR,12aS,14aR,14bS)-11-cyano-2,2,6a,6b,9,9,12a-heptamethyl-10,14-dioxo-1,2,3,4,4a,5,6,6a,6b,7,8,8a,9,10,12a,14,14a,14b-octadecahydropicen-4a-yl)-2,2-difluoropropanamide], the “Increase in total glutathione” value in data set [1] is recorded as more than 2 fold. Further, in data set [2], the “Expression of genes involved in NADPH synthesis” value is listed as “dose-dependent increase in expression of genes involved in NADPH synthesis”. Further, the “Lung Txnrd enzyme activity” value in data set [3] (30 mg/kg) was “Txnrd enzyme activity was also induced”. In addition, the “Lung NQO1 enzyme activity (decreased by cigarette smoke)” value in data set [3] (3, 10, or 30 mg/kg) is listed as “rescued this loss”. The “Pro-inflammatory cytokines incl. KC and TNF-α” value in data set [3] (doses as low as 3 mg/kg daily for two weeks) is on record as “significant suppression of pro-inflammatory cytokines”. Moreover, in data set [4], the “NQO1 activity induction, Kidney” value is reported as 10.9; the “NQO1 activity induction, Liver” value is 10.9; the “NQO1 activity induction, Lung” value was determined as 1.75. The compound further had a fraction unbound in data set [5] of 0.07.
